Laboratory results reported in PMC7460887, “Capsaicin-Cyclodextrin Complex Enhances Mepivacaine Targeting and Improves Local Anesthesia in Inflamed Tissues” (International Journal of Molecular Sciences, 2020).
≈ marks a conversion by molar mass, not a printed value. Structures can show the parent of a compound that is named as a salt. Where two headings read alike, the source gives them in different places.

Experiments:
[1] = Phase solubility study of CAP with HP-β-CD; format: physicochemical
Procedure: The effects of HP-β-CD on the solubility of CAP was investigated according to the phase solubility method described by Higuchi and Connors. In this experiment increasing concentrations of CD (0–10 mM) were added to a saturated CAP solution. The solutions were left under magnetic stirring for 48 h (350 rpm and 25 °C). Aliquots of each vial were centrifuged for 10 min (4100× g) and the supernatant was filtered through 0.45 μm (Millipore, Burlington, Massachusetts, USA) and diluted to determine CAP concentration by UV absorption at 280 nm. The phase solubility diagram was obtained by plotting the solubility of CAP, versus the concentrations of HP-β-CD […]. The apparent stability constant (Ks) were calculated by Equation (1), where S0 is the aqueous molar solubility of the drug, taken from the Y intercept of the plot:(1) Ks=slope/S0(1−slope)
The complexation efficiency (CE) determines the adequate ratio of CDs to ensure maximum solubility of the complexed drug. For the CAP-HP-β-CD complex, CE was calculated from the phase solubility plots, according to Equation (2). The CE values allow drug/CD ratio in the formulation, according to Equation (3):(2) CE=slope/(1−slope) (3) Drug:CD=1/(CE+1)/CE

[2] = DOSY NMR diffusion, complexed fraction and association constant; format: physicochemical
Procedure: DOSY is an experiment that separates the signals of a mixture of components according to the size and shape of the molecules. DOSY experiments were conducted with the pulse sequence ledbpgp2s, with a time diffusion of 0.06 s. […] The average acquisition time of the experiment was 40 min. The processing program (Dosy Toolbox) was run with data transformed using fn = 32 K. The diffusion coefficient and standard deviation of each species was given by the arithmetic mean of all coefficients of the same species. DOSY allows determination of the association constant (Ka), between guest molecules and CDs. Ka values are inferred from the complexed fraction (Fcomplexed) of the guest molecule, and both values were calculated accordingly to Equations (4) and (5), where Ddrug is the diffusion coefficient of the free drug, Dcomplex is the diffusion coefficient of the complex, Dcyclodextrin is the diffusion coefficient of free CD, and R is the molar concentration of non-complexed CD [25]:(4) Fcomplexed=[Ddrug−Dcomplex]/[Ddrug−Dciclodextrin] (5) Ka=[Ddrug−Dcomplex]/[Ddrug−Dciclodextrin] × R

[3] = In vitro release, Franz-type vertical diffusion cell; format: physicochemical; conditions: 37 °C, PBS pH 7.4, n = 3
Procedure: A “Franz-type” vertical diffusion cell system was used to evaluate the in vitro release of CAP, comparing the free (dissolved in 20% ethanolic solution) and complexed drug with HP-β-CD [26]. The diffusion system consists of two compartments: the donor one—containing 1 mL of the sample—and the acceptor compartment, containing 12 mL of buffer (10 mM phosphate buffered saline, pH 7.4) kept at 37 °C, under mild stirring to ensure sink condition. A cellulose membrane (Spectrapore, Los Angeles, 1000 Da molecular exclusion pore) separated the two compartments. Aliquots (200 μL) were withdrawn from the acceptor compartment at fixed intervals (15, 30, […], 60, and 90 min, and every hour for 6 h) and the volume was replaced with fresh medium. CAP was quantified by HPLC, in a Waters Breeze 2 System (Waters, Milford, Massachussets, USA) at 280 nm and 30 °C, using a Luna® C18 (2) reverse phase (25 × 4.6 mm, 5 μm) (Phenomenex, Torrance, California, USA), 30-µL injection volume, phosphoric acid (1:1000 v/v) and acetonitrile (7:3 v:v), at pH 2.4, and 1.0 mL/min flow rate.

[4] = cited from earlier work; for solubility increment of CAP: at least 10 times greater HP-β-CD concentrations; for Ks with HP-β-CD (from phase solubility study): LA base form
[5] = cited from earlier work
[6] = test system: carrageenan-inflamed mice paw; assay: Analgesia in inflamed tissue, carrageenan-induced hyperalgesia, mechanical allodynia in mice hind paw; format: in vivo, Male Swiss mice; conditions: 2% solution, subplantar injection, 4 h after carrageenan
Procedure: The antinociceptive effect of the association between mepivacaine and complexed CAP (HP-β-CD-CAP) was evaluated in vivo. A sample of freeze-dried HP-β-CD-CAP was resuspended in 4 mL of mepivacaine hydrochloride solution (MVC) to final concentrations of 1.6 mM (0.05%) CAP and 2% MVC. MVC solution was previously sterilized by filtration 0.22 μm. (Millipore, Burlington, Massachusetts, USA). Male Swiss mice (30–35 g) were obtained from Centro de Bioterismo, University of Campinas, UNICAMP (CEMIB-UNICAMP, Campinas, São Paulo, Brazil) and housed in standard cages under a 12/12 h of light/dark cycle. All experiments were approved by the institutional animal care and use committee of Unicamp, meaning it follows the Brazilian national guideline, which is in line with the National Institutes of Health guide for the care and use of Laboratory animals (protocol # 4402-1).
The mechanical allodynia was analyzed in mice hind paw by a Dynamic Plantar Aesthesiometer (model 37450, Ugo Basile, Italy). The animals were placed in an elevated cage for 2 h before the test, for setting and training. […] The anesthetic formulations were then applied into the same subplantar region of the right paw of the mice, and the pain threshold was evaluated every 15 min. […] After the mechanical stimulus, the time elapsed until paw withdrawal as well as the applied pressure value were automatically recorded.

[7] = parameters: method as in PMID 19440843; conditions: pure HP-β-CD 15% m/w; cited from earlier work
[8] = complexation with HP-β-CD, DOSY-NMR

In the case of `COc1cc(CNC(=O)CCCC/C=C/C(C)C)ccc1O` [CAP, Capsaicin], the “improvement of apparent solubility of CAP” value [1] is reported as “up to 20 times”, the “moles of HP-β-CD required per mole of drug to solubilize (D:CD, Equation (3))” value [1] is reported as 4.2 mol and the solubility at 48 h ([1]; 25 °C, aqueous with cosolvent or surfactant or cyclodextrin, thermodynamic from solid) is reported as 2200 µM (≈ 672 µg/mL). For the same compound, the “diffusion coefficient (D)” value [2] was 4.94 × 10^−10 m^2s^−1, the “time of CAP release” value [3] was 5 h and the “solubility increment of CAP” value ([4]; at 27 °C) was 160 times. The “solubility increment of CAP” value ([4]; at 37 °C) was 147 times and the “diffusion coefficient (D)” value [5] was 4.81 × 10^−10 m^2s^−1.

With `Cc1cccc(C)c1NC(=O)C1CCCCN1C` (centres unmarked) [MVC, mepivacaine hydrochloride] the “induction of anesthesia in inflamed paw” value [6] was “did not induce anesthesia in mice at any time tested”.

For `CCCCN1CCCC[C@H]1C(=O)Nc1c(C)cccc1C` [S-bupivacaine], the “association constant (Ka)” value [5, 8] is given as 91 M⁻¹ and the “complexed fraction (Fcomplexed)” value [5, 8] is given as 57%.

For `CCCCN1CCCCC1C(=O)Nc1c(C)cccc1C` (centres unmarked) [bupivacaine], the “Ks with HP-β-CD (from phase solubility study)” value [4] is given as 95 M⁻¹.

For `Clc1ccccc1C(c1ccccc1)(c1ccccc1)n1ccnc1` [clotrimazole], the “molecules of HP-β-CD demanded for optimal complexation” value (“molecules of HP-β-CD demanded” below) [4] is listed as 21 molecules.

In the case of `Cc1cccc(C)c1NC(=O)C1CCCCN1C` (centres unmarked) [mepivacaine], the “Ks with HP-β-CD (from phase solubility study)” value [4] is given as 38 M⁻¹.

In the case of `Clc1ccc(COC(Cn2ccnc2)c2ccc(Cl)cc2Cl)c(Cl)c1` (centres unmarked) [miconazole], the “molecules of HP-β-CD demanded” value [4] is given as 12 molecules.

In the case of `CC(C)(C)c1ccc(C(O)CCCN2CCC(C(O)(c3ccccc3)c3ccccc3)CC2)cc1` (centres unmarked) [terfenadine], the “molecules of HP-β-CD demanded” value [4] is listed as 4 molecules.

In the case of hydroxypropyl-β-cyclodextrin [HP-β-CD], the “collapse temperature (Tc)” value [7] is listed as −9.5 °C, the “diffusion coefficient (D)” value [2] is listed as 2.00 × 10^−10 m^2s^−1 and the “HP-β-CD concentration above which aggregates start” value [4] is listed as “higher than 12 mM”. For the same compound, the “diffusion coefficient (D)” value [5] was 2.21 × 10^−10 m^2s^−1.
